In the NIST ThermoML archive (doi:10.1021/je800817b) one finds binary diffusion coefficient data, which are given here for 14 compounds.

The data set is described as follows: xn = mol fraction of the nth substance listed. As to conditions: 101 kPa, Liquid, x1 = 0.

As for `CCCCCCCCn1cc[n+](C)c1.O=S(=O)([N-]S(=O)(=O)C(F)(F)F)C(F)(F)F` + CC#N, the binary diffusion coefficient (283 K) was found to be 1.62e-09 m2/s; the binary diffusion coefficient (298 K) amounted to 2e-09 m2/s; the binary diffusion coefficient (313 K) amounted to 2.31e-09 m2/s; the binary diffusion coefficient (323 K) was 2.57e-09 m2/s; the binary diffusion coefficient (333 K) was 2.86e-09 m2/s.

With `CCCCCC[n+]1ccn(C)c1.O=S(=O)([N-]S(=O)(=O)C(F)(F)F)C(F)(F)F` + CC#N, the binary diffusion coefficient runs as follows: (283 K) 1.67e-09 m2/s; (298 K) 2.1e-09 m2/s; (313 K) 2.51e-09 m2/s; (323 K) 2.74e-09 m2/s; (333 K) 2.99e-09 m2/s.

With `CCCC[n+]1ccn(C)c1.O=S(=O)([N-]S(=O)(=O)C(F)(F)F)C(F)(F)F` + CC#N, the binary diffusion coefficient is, setting by setting: (283 K) 1.7e-09 m2/s; (298 K) 2.22e-09 m2/s; (313 K) 2.7e-09 m2/s; (323 K) 3.07e-09 m2/s; (333 K) 3.45e-09 m2/s.

With `CCn1cc[n+](C)c1.O=S(=O)([N-]S(=O)(=O)C(F)(F)F)C(F)(F)F` + CC#N, the binary diffusion coefficient by setting is: (283 K) 1.79e-09 m2/s; (298 K) 2.29e-09 m2/s; (313 K) 2.78e-09 m2/s; (323 K) 3.15e-09 m2/s; (333 K) 3.48e-09 m2/s.

As for `CCCCCCCCn1cc[n+](C)c1.O=S(=O)([N-]S(=O)(=O)C(F)(F)F)C(F)(F)F` + CO, the binary diffusion coefficient by setting is: (283 K) 9.9e-10 m2/s; (298 K) 1.32e-09 m2/s; (313 K) 1.59e-09 m2/s; (323 K) 1.83e-09 m2/s; (333 K) 2.12e-09 m2/s.

For the compound `CCCCCC[n+]1ccn(C)c1.O=S(=O)([N-]S(=O)(=O)C(F)(F)F)C(F)(F)F` + CO, the binary diffusion coefficient (283 K) was 1.05e-09 m2/s; the binary diffusion coefficient (298 K) was 1.34e-09 m2/s; the binary diffusion coefficient (313 K) was found to be 1.64e-09 m2/s; the binary diffusion coefficient (323 K) is 1.99e-09 m2/s; the binary diffusion coefficient (333 K) stood at 2.21e-09 m2/s.

`CCCC[n+]1ccn(C)c1.O=S(=O)([N-]S(=O)(=O)C(F)(F)F)C(F)(F)F` + CO: the binary diffusion coefficient by setting is: (283 K) 1.11e-09 m2/s; (298 K) 1.48e-09 m2/s; (313 K) 1.88e-09 m2/s; (323 K) 2.15e-09 m2/s; (333 K) 2.43e-09 m2/s.

Regarding `CCn1cc[n+](C)c1.O=S(=O)([N-]S(=O)(=O)C(F)(F)F)C(F)(F)F` + CO, the binary diffusion coefficient (283 K) amounted to 1.17e-09 m2/s; the binary diffusion coefficient (298 K) came out at 1.6e-09 m2/s; the binary diffusion coefficient (313 K) stood at 2.03e-09 m2/s; the binary diffusion coefficient (323 K) stood at 2.3e-09 m2/s; the binary diffusion coefficient (333 K) amounted to 2.69e-09 m2/s.

In the case of `CCCCCCCCn1cc[n+](C)c1.O=S(=O)([N-]S(=O)(=O)C(F)(F)F)C(F)(F)F` + O, the binary diffusion coefficient was 5.7e-10 m2/s (283 K); 8.1e-10 m2/s (298 K); 8.7e-10 m2/s (303 K); 1.05e-09 m2/s (313 K); 1.31e-09 m2/s (323 K); 1.47e-09 m2/s (333 K).

For the compound `CCCCCC[n+]1ccn(C)c1.O=S(=O)([N-]S(=O)(=O)C(F)(F)F)C(F)(F)F` + O, the binary diffusion coefficient (283 K) amounted to 5.8e-10 m2/s; the binary diffusion coefficient (298 K) was determined as 8.3e-10 m2/s; the binary diffusion coefficient (303 K) was 9e-10 m2/s; the binary diffusion coefficient (313 K) worked out at 1.15e-09 m2/s; the binary diffusion coefficient (323 K) came out at 1.39e-09 m2/s; the binary diffusion coefficient (333 K) was 1.63e-09 m2/s.

In the case of `CCCC[n+]1ccn(C)c1.O=S(=O)([N-]S(=O)(=O)C(F)(F)F)C(F)(F)F` + O, the binary diffusion coefficient by setting is: (283 K) 6e-10 m2/s; (298 K) 8.5e-10 m2/s; (303 K) 9.6e-10 m2/s; (313 K) 1.16e-09 m2/s; (323 K) 1.47e-09 m2/s; (333 K) 1.74e-09 m2/s.

For the compound `CCn1cc[n+](C)c1.O=S(=O)([N-]S(=O)(=O)C(F)(F)F)C(F)(F)F` + O, the binary diffusion coefficient is, setting by setting: (283 K) 6.1e-10 m2/s; (298 K) 8.9e-10 m2/s; (303 K) 9.8e-10 m2/s; (313 K) 1.27e-09 m2/s; (323 K) 1.55e-09 m2/s; (333 K) 1.85e-09 m2/s.

For `CCCCn1cc[n+](C)c1.[Cl-]` [1-butyl-3-methylimidazolium chloride] + O, the binary diffusion coefficient (283 K) stood at 8.3e-10 m2/s; the binary diffusion coefficient (298 K) is 1.18e-09 m2/s; the binary diffusion coefficient (303 K) was 1.32e-09 m2/s; the binary diffusion coefficient (313 K) was found to be 1.66e-09 m2/s; the binary diffusion coefficient (323 K) turned out to be 2.01e-09 m2/s; the binary diffusion coefficient (333 K) was 2.4e-09 m2/s.

Take `CCCCn1cc[n+](C)c1.F[B-](F)(F)F` [1-butyl-3-methylimidazolium tetrafluoroborate] + O: the binary diffusion coefficient turned out to be 7.7e-10 m2/s (283 K); 1.14e-09 m2/s (298 K); 1.28e-09 m2/s (303 K); 1.55e-09 m2/s (313 K); 1.97e-09 m2/s (323 K); 2.26e-09 m2/s (333 K).
